Experimental data from US20220008401A1, “COMPOSITIONS AND METHODS FOR TREATING PULMONARY DISEASE WITH MATRIX METALLOPROTEINASE INHIBITORS” (DARSHA LLC, priority 2019, published 2022).

How the values were obtained:
LPS injured mice = test: FITC-albumin BALF:serum ratio (vascular permeability/edema), LPS-injured mice, single inhaled dose; assay type: in vivo, C57BL/6J mice; conditions: LPS 1.5 mg/kg; 24 hours later single aerosolized dose 35 mg/kg; sacrifice one hour after; n=6/group (control 0.44, LPS 1.1)
Protocol: We next determined if inhaled Compound 1 attenuated specific features of acute inflammatory lung injury that were also observed in response to LPS. Again, 12-week-old male C57BL/6J mice were intranasally instilled with LPS (1.5 mg/kg of 1 mg/ml solution in sterile PBS). 24 hours later, these mice received a single dose of aerosolized MMP inhibitor (Compound 1, dissolved in PBS, 35 mg/kg) or PBS alone and a tail vein injection of FITC labeled albumin (FITC-albumin). One hour following nebulization, the mice were sacrificed. The left lung was fixed in formalin from each animal, paraffin embedded, sectioned and stained with H&E to examine histological features indicative of lung injury. These were achieved by visually scoring each slide based on a lung injury scoring system developed by the American Thoracic Society for animal models of inflammatory lung injury.
Tissue edema was assessed using two methods. First, serum and BALF fluid were collected from mice and FITC-albumin levels were measured in each using a fluorescent microplate reader. Fluid leakage into injured lungs is indicative of increased vascular permeability and could be indicative of edema. A greater fluid leakage would also be characterized by increased levels of FITC-albumin in the BALF. To determine the level of vascular permeability and edema, the ratio of BALF FITC-albumin to serum FITC-albumin was calculated. […]

neutrophils = test: Neutrophil influx: myeloperoxidase staining and BALF differential cell counts, LPS-injured mice, q6h x 4 doses; assay type: in vivo
Protocol: Mice were nasally instilled with LPS followed by treatment with CGS every 6 hours for 4 doses. Mice were sacrificed 6 hours after the 4th dose of Compound 1 and lungs and BALF were collected for analysis. Paraffin embedded lung sections ([…]) were stained for myeloperoxidase, a neutrophil marker, followed by detection using DAB, to assess parenchymal neutrophil infiltration.
Differential cell counts were taken from each animal's cytospin with at least 3 separate images counted.

## butanamide, N-hydroxy-2-[[(4-hydroxyphenyl)sulfonyl](3-pyridinylmethyl)amino]-3-methyl, hydrochloride, (2R) [Compound 1]
LPS injured mice
  ratio of BALF FITC-albumin to serum FITC-albumin: 0.49
neutrophils; LPS then every 6 hours for 4 doses, n≥4 (LPS only 8.0e6±5.7e6)
  overall inflammatory cell count in BALF: 8.6e5±3.7e5 cells/mL
neutrophils; LPS then every 6 hours for 4 doses, sacrifice 6 hours after 4th dose
  parenchymal neutrophil infiltration (myeloperoxidase staining): qualitatively reduced parenchymal neutrophil infiltration
neutrophils; LPS-CGS group, every 6 hours for 4 doses, n≥5 (LPS-PBS 8.0e6±5.7e6)
  neutrophil count within the BALF: 2.4e6±1.2e6 cells/ml
